Results from PMC9653409, “Generative deep learning enables the discovery of a potent and selective RIPK1 inhibitor” (Nature Communications, 2022).
Like-named read-outs stand apart in the source and are kept apart here.

What was measured:
Assay in all cases: Kinase inhibitory activity profiling of RI-962@10 µM (406 kinases, Eurofins)
Assay type in all cases: biochemical
[1] = target: panel of human kinases (kinase named in endpoint) (Homo sapiens, UniProt O00444); settings: 10 µM; read-out: Activity (%), Plk4(h)
Sequence of panel of human kinases (kinase named in endpoint) (Homo sapiens, UniProt O00444) (O00444 whole entry): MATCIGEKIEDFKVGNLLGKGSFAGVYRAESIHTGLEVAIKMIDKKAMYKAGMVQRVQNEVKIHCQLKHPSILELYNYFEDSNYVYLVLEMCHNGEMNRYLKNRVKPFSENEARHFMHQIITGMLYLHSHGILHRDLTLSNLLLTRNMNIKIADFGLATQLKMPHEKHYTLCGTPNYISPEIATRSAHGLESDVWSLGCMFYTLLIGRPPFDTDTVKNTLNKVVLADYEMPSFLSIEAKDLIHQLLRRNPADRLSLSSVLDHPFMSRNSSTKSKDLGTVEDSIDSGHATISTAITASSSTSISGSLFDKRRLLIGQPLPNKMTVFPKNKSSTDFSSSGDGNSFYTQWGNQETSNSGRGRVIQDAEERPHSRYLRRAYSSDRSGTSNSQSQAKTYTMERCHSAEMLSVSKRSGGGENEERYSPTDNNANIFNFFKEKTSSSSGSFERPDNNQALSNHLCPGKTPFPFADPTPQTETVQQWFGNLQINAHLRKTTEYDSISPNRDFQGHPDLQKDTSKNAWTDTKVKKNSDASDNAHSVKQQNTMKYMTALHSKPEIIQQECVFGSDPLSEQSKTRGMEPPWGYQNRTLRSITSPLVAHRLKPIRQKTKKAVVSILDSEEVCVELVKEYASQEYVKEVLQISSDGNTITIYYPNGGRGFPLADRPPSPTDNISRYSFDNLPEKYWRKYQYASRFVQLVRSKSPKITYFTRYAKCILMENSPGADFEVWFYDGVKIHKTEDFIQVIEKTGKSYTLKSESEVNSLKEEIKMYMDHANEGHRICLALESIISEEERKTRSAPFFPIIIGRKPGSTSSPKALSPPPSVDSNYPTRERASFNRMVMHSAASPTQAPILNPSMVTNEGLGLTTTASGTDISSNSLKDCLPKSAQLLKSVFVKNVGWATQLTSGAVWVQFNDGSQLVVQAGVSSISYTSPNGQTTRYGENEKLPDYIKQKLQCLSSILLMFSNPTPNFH
Outline: (§1)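 Radiometric filter-binding kinase assays: enzyme preincubated 15 min with compound in 8 mM MOPS pH 7.0, 0.2 mM EDTA, 250 μM peptide substrate, 10 mM magnesium acetate, 10 μM [γ-33P]-ATP. Reaction started with Mg/ATP, run 40 min at room temperature, stopped with phosphoric acid; 33P incorporation read by scintillation counting. Other kinases by similar protocols.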

[2] = target: panel of human kinases (kinase named in endpoint) (Homo sapiens, UniProt P00533); settings: 10 µM; read-out: Activity (%), EGFR(h)
Outline: as §1

[3] = target: panel of human kinases (kinase named in endpoint) (Homo sapiens, UniProt P07947); settings: 10 µM; read-out: Activity (%), Yes(h)
Outline: as §1

[4] = target: panel of human kinases (kinase named in endpoint) (Homo sapiens, UniProt P10721, V560G); settings: 10 µM; read-out: Activity (%), cKit(V560G)(h)
Sequence of panel of human kinases (kinase named in endpoint) (Homo sapiens, UniProt P10721, V560G) (P10721 26-976 V560G): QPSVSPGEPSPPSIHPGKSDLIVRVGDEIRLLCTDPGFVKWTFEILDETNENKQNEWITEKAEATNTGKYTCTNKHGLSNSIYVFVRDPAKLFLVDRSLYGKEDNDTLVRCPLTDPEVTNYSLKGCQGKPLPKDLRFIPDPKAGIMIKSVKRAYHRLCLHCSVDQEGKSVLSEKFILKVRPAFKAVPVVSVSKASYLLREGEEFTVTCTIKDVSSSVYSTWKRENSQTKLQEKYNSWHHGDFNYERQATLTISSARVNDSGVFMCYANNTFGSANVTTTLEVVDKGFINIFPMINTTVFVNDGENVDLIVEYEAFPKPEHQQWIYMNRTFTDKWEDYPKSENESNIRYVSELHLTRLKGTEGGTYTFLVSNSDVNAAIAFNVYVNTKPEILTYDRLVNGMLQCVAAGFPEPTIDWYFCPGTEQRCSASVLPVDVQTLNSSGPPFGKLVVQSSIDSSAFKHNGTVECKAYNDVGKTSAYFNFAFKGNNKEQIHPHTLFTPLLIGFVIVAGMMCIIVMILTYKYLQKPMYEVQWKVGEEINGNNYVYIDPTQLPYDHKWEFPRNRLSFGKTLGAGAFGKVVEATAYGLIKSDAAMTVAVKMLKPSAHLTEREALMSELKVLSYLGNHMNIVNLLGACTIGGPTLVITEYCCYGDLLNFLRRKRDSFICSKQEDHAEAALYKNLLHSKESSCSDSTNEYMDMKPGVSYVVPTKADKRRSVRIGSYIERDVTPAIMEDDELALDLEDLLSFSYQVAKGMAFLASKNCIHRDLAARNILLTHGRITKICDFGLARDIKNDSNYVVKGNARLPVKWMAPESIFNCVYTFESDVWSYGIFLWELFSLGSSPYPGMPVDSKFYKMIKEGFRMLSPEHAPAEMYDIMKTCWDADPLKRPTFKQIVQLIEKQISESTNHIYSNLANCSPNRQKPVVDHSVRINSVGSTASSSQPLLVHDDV
Outline: as §1

[5] = target: panel of human kinases (kinase named in endpoint) (Homo sapiens, UniProt P15056, V600E); settings: 10 µM; read-out: Activity (%), B-Raf(V599E)(h)
Outline: as §1

[6] = target: panel of human kinases (kinase named in endpoint) (Homo sapiens, UniProt P17948); settings: 10 µM; read-out: Activity (%), Flt1(h)
Outline: as §1

[7] = target: panel of human kinases (kinase named in endpoint) (Homo sapiens, UniProt P29323); settings: 10 µM; read-out: Activity (%), EphB2(h)
Outline: as §1

[8] = target: panel of human kinases (kinase named in endpoint) (Homo sapiens, UniProt P30291); settings: 10 µM; read-out: Activity (%), Wee1(h)
Outline: as §1

[9] = target: panel of human kinases (kinase named in endpoint) (Homo sapiens, UniProt P35626); settings: 10 µM; read-out: Activity (%), GRK3(h)
Outline: as §1

[10] = target: panel of human kinases (kinase named in endpoint) (Homo sapiens, UniProt P36507); settings: 10 µM; read-out: Activity (%), MEK2(h)
Sequence of panel of human kinases (kinase named in endpoint) (Homo sapiens, UniProt P36507) (P36507 whole entry): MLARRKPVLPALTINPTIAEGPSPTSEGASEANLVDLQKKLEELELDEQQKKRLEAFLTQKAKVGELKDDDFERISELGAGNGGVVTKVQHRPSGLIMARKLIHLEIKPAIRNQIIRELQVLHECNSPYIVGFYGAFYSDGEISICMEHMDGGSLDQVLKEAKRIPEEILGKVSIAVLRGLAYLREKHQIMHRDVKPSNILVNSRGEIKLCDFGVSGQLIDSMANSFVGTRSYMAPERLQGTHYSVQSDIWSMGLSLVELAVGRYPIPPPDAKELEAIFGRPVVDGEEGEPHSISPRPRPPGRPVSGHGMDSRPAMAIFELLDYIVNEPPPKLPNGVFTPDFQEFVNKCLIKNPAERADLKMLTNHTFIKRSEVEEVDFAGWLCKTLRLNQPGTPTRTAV
Outline: as §1

[11] = target: panel of human kinases (kinase named in endpoint) (Homo sapiens, UniProt P51812); settings: 10 µM; read-out: Activity (%), Rsk2(h)
Outline: as §1

[12] = target: panel of human kinases (kinase named in endpoint) (Homo sapiens, UniProt P51817); settings: 10 µM; read-out: Activity (%), PrKX(h)
Outline: as §1

[13] = target: panel of human kinases (kinase named in endpoint) (Homo sapiens, UniProt P51955); settings: 10 µM; read-out: Activity (%), NEK2(h)
Outline: as §1

[14] = target: panel of human kinases (kinase named in endpoint) (Homo sapiens, UniProt P68400); settings: 10 µM
Sequence of panel of human kinases (kinase named in endpoint) (Homo sapiens, UniProt P68400) (P68400 whole entry): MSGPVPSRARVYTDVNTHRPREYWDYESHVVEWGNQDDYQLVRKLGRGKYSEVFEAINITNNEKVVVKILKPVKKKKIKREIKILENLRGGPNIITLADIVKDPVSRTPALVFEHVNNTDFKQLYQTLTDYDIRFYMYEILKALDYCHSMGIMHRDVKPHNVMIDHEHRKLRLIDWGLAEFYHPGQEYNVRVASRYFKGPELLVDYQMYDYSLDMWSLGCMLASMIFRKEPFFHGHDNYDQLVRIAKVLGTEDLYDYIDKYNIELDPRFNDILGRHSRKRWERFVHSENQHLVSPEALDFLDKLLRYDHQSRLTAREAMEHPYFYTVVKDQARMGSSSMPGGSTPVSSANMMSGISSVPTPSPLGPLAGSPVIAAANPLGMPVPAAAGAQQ
Outline: as §1

[15] = target: panel of human kinases (kinase named in endpoint) (Homo sapiens, UniProt Q06187, R28H); settings: 10 µM; read-out: Activity (%), BTK(R28H)(h)
Outline: as §1

[16] = target: panel of human kinases (kinase named in endpoint) (Homo sapiens, UniProt Q13237); settings: 10 µM; read-out: Activity (%), PRKG2(h)
Sequence of panel of human kinases (kinase named in endpoint) (Homo sapiens, UniProt Q13237) (Q13237 whole entry): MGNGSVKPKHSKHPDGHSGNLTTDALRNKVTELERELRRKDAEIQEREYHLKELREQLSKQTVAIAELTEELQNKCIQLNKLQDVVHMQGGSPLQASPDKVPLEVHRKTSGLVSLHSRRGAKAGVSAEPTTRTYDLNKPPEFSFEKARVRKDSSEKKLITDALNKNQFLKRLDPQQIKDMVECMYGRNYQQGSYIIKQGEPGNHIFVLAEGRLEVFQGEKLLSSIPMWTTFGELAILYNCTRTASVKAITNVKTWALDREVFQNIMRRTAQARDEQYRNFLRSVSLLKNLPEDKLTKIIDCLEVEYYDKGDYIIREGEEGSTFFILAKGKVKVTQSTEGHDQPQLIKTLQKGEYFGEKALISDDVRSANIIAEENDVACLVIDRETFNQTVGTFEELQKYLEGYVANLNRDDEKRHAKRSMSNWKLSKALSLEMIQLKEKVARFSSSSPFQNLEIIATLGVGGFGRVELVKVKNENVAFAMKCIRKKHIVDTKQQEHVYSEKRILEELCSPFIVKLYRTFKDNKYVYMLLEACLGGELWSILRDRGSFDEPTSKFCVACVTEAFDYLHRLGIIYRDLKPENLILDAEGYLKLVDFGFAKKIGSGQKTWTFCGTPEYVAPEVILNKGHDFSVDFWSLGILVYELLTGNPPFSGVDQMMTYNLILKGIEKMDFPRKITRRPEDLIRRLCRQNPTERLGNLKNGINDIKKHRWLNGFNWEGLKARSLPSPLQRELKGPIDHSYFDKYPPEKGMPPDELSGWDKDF
Outline: as §1

[17] = target: panel of human kinases (kinase named in endpoint) (Homo sapiens, UniProt Q13464); settings: 10 µM; read-out: Activity (%), ROCK-I(h)
Sequence of panel of human kinases (kinase named in endpoint) (Homo sapiens, UniProt Q13464) (Q13464 whole entry): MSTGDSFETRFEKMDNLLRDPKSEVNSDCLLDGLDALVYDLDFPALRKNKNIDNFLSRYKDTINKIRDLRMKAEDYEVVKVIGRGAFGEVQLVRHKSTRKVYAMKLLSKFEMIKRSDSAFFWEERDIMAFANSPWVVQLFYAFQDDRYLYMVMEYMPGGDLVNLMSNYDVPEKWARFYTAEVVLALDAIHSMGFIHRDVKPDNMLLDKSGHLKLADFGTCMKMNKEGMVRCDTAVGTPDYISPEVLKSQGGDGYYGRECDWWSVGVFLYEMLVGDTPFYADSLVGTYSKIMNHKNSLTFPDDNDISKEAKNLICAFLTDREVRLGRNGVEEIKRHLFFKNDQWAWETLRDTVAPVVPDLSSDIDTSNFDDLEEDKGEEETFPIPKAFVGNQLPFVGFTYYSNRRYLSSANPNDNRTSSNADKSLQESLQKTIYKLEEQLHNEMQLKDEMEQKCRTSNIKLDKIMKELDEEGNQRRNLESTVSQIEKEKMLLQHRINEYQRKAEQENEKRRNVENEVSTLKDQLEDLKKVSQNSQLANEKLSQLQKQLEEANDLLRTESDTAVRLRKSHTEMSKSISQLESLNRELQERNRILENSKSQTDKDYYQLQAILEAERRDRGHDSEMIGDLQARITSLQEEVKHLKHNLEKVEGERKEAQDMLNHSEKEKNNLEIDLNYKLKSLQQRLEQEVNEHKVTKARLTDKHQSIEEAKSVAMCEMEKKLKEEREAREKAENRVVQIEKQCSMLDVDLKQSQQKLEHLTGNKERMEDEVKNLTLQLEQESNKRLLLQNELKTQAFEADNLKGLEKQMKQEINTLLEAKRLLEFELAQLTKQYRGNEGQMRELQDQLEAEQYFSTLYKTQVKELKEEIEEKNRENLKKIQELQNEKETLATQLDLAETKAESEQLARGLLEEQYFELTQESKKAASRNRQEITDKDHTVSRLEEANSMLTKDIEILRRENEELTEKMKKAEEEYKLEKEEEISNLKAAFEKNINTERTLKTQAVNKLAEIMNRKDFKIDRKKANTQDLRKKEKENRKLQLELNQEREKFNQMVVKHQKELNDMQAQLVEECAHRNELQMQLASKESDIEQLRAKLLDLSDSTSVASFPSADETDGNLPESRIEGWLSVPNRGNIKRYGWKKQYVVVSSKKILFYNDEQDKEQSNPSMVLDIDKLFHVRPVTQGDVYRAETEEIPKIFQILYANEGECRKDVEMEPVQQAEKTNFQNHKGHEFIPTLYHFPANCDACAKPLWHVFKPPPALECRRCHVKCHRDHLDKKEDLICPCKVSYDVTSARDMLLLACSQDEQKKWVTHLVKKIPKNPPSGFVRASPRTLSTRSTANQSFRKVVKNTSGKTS
Outline: as §1

[18] = target: panel of human kinases (kinase named in endpoint) (Homo sapiens, UniProt Q16288); settings: 10 µM; read-out: Activity (%), TrkC(h)
Outline: as §1

[19] = target: panel of human kinases (kinase named in endpoint) (Homo sapiens, UniProt Q16539); settings: 10 µM; read-out: Activity (%), SAPK2a(h)
Outline: as §1

[20] = target: panel of human kinases (kinase named in endpoint) (Homo sapiens, UniProt Q16832); settings: 10 µM; read-out: Activity (%), DDR2(h)
Outline: as §1

[21] = target: panel of human kinases (kinase named in endpoint) (Homo sapiens, UniProt Q5VT25); settings: 10 µM; read-out: Activity (%), MRCKα(h)
Outline: as §1

[22] = target: panel of human kinases (kinase named in endpoint) (Homo sapiens, UniProt Q6SA08); settings: 10 µM; read-out: Activity (%), TSSK4(h)
Outline: as §1

[23] = target: panel of human kinases (kinase named in endpoint) (Homo sapiens, UniProt Q8IY84); settings: 10 µM; read-out: Activity (%), NIM1(h)
Outline: as §1

[24] = target: panel of human kinases (kinase named in endpoint) (Homo sapiens, UniProt Q92519); settings: 10 µM; read-out: Activity (%), TRB2(h)
Outline: as §1

[25] = target: panel of human kinases (kinase named in endpoint) (Homo sapiens, UniProt Q96GD4); settings: 10 µM; read-out: Activity (%), Aurora-B(h)
Outline: as §1

CC(C)C(=O)Nc1nc2cc(-c3ccc4c(c3)c(C(=O)NC(C)c3ccccc3)cn4C)ccn2n1 (centres unmarked) [RI-962]
activity at 10 µM [1]: 88%
activity at 10 µM [2]: 94%
activity at 10 µM [3]: 97%
activity at 10 µM [4]: 95%
activity at 10 µM [5]: 107%
activity at 10 µM [6]: 85%
activity at 10 µM [7]: 73%
activity at 10 µM [8]: 92%
activity at 10 µM [9]: 92%
activity at 10 µM [10]: 86%
activity at 10 µM [11]: 106%
activity at 10 µM [12]: 126%
activity at 10 µM [13]: 100%
activity at 10 µM ([14]; read-out: Activity (%), CK2(h)): 91%
activity at 10 µM ([14]; read-out: Activity (%), CK2α1(h)): 94%
activity at 10 µM [15]: 105%
activity at 10 µM [16]: 105%
activity at 10 µM [17]: 99%
activity at 10 µM [18]: 56%
activity at 10 µM [19]: 118%
activity at 10 µM [20]: 126%
activity at 10 µM [21]: 94%
activity at 10 µM [22]: 104%
activity at 10 µM [23]: 88%
activity at 10 µM [24]: 91%
activity at 10 µM [25]: 119%
